Consider 11 compounds from ChEMBL document CHEMBL1201862, “PubChem BioAssay data set” (2004).

Among the test systems are IGROV-1; PC-3; RPMI-8226; 786-0; HCC 2998; A498; UO-31; NCI-H23; SK-OV-3; U-251; HCT-15; COLO 205; SR; BT-549; HT-29; SF-295; T47D; NCI-H460; HL-60; HOP-62.
Holding throughout (test): NCI anticancer screen, dose series, 48 h

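All cell lines were grown in 96-well plates and treated with compound for 48 hours. At the GI50, growth is halved.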 Activity calls are given as the source filed them. No stated cut-off is given here; in the data, active = GI50 up to about 1.1 µM and inactive = higher.

As for `CCCC(=O)Nc1cc(/C=C/C(=O)N2CC(CCl)c3ccc([N+](=O)[O-])cc32)n(C)c1` (configuration not stated), the GI50 with IGROV-1 is 65 µM (inactive); in the assay with PC-3, > 100 µM (inactive); in the assay with RPMI-8226, 14.5 µM (inactive); in the assay on 786-0 it was 62.4 µM (inactive); with HCC 2998, 57.7 µM (inactive); with A498 it was < 0.01 µM (active). The GI50 in the assay on UO-31 was > 100 µM (inactive); with NCI-H23 it was > 100 µM (inactive); in the assay with SK-OV-3, > 100 µM (inactive); in the assay with U-251 it was > 100 µM (inactive); in the assay on HCT-15, above 100 µM; with COLO 205, > 100 µM (inactive). For the same compound, the GI50 with SR is > 100 µM (inactive); in the assay on BT-549 it was 4.07 µM (inactive); in the assay with HT-29, 21.1 µM (inactive); in the assay with SF-295, 44.1 µM (inactive); in the assay on T47D, 70 µM (inactive).
`CC(=O)c1nc2ccccc2n1CC(=O)c1ccc([N+](=O)[O-])cc1`: the GI50 with IGROV-1 was 3.12 µM (inactive); with NCI-H460 it was 5.74 µM (inactive); in the assay with PC-3, 10.4 µM (inactive); in the assay on RPMI-8226 it was 20.1 µM (inactive); with HL-60, 13.8 µM (inactive); in the assay with 786-0, 3.47 µM (inactive). Further, the GI50 was 5.06 µM (inactive) with HOP-62; 55.2 µM (inactive) in the assay on A498; 14.9 µM (inactive) in the assay with UO-31; 31.3 µM (inactive) in the assay with NCI-H23; 31.2 µM (inactive) in the assay on SK-OV-3; 4.38 µM (inactive) in the assay on U-251. Besides, the GI50 in the assay with HCT-15 is 42.3 µM; in the assay on COLO 205, 34.8 µM (inactive); in the assay with SR, 7.45 µM (inactive); with BT-549 it was 12.6 µM (inactive); in the assay with HT-29, 15.2 µM (inactive); with SF-295, 17.7 µM (inactive). Moreover, the GI50 in the assay on T47D is 8.18 µM (inactive).
Turning to `O=C(c1ccc(Cl)cc1)N1CCN=C1c1cc2ccccc2c2ccccc12`, the GI50 in the assay on IGROV-1 is 14.3 µM (inactive); in the assay with NCI-H460 it was 11.5 µM (inactive); in the assay with PC-3, 17.1 µM (inactive); with RPMI-8226 it was 19.8 µM (inactive); in the assay on HL-60, 21.8 µM (inactive); in the assay with 786-0, 16.7 µM (inactive). The GI50 in the assay with HOP-62 was 18.8 µM (inactive); in the assay with A498 it was 15.4 µM (inactive); in the assay on UO-31, 16.9 µM (inactive); in the assay with NCI-H23, 17.6 µM (inactive); in the assay with SK-OV-3 it was 16.1 µM (inactive); in the assay on U-251 it was 16.3 µM (inactive). For the same compound, the GI50 was 16.6 µM with HCT-15; 16 µM (inactive) in the assay on COLO 205; 22.6 µM (inactive) in the assay with SR; 19 µM (inactive) in the assay with BT-549; 15.8 µM (inactive) in the assay on HT-29; 16.6 µM (inactive) with SF-295. In addition, the GI50 with T47D was 19.1 µM (inactive).
For the compound `O=c1[nH]c2ccccc2c2oc(-c3ccccc3)nc12`, the GI50 was > 100 µM (inactive) in the assay on IGROV-1; > 100 µM (inactive) with NCI-H460; > 100 µM (inactive) in the assay on PC-3; 27.9 µM (inactive) with RPMI-8226; 23.6 µM (inactive) with 786-0; 15.8 µM (inactive) with HOP-62. The GI50 with HCC 2998 was > 100 µM (inactive); in the assay with A498, 27 µM (inactive); with UO-31 it was > 100 µM (inactive); in the assay on NCI-H23, 65.8 µM (inactive); with SK-OV-3, 37.2 µM (inactive); with U-251 it was 24.7 µM (inactive). Further, the GI50 was above 100 µM in the assay on HCT-15; 18.6 µM (inactive) with COLO 205; 15.9 µM (inactive) in the assay on SR; 31.2 µM (inactive) in the assay with BT-549; > 100 µM (inactive) in the assay with HT-29; 23.9 µM (inactive) with SF-295. The GI50 in the assay with T47D was 51.2 µM (inactive).
For the compound `COc1cc2c3c(n(C)c(=O)c2cc1OC)-c1cc2c(cc1/C3=C/CCCCBr)OCO2`, the GI50 is 6.56 µM (inactive) in the assay on IGROV-1; 17.8 µM (inactive) in the assay on NCI-H460; > 100 µM (inactive) with PC-3; 2.54 µM (inactive) in the assay with RPMI-8226; 30.3 µM (inactive) in the assay with HL-60; 17.1 µM (inactive) in the assay with 786-0. For the same compound, the GI50 with A498 is 19.8 µM (inactive); with UO-31 it was 71 µM (inactive); in the assay on NCI-H23 it was 24.8 µM (inactive); with SK-OV-3, > 100 µM (inactive); in the assay with U-251, 40.9 µM (inactive); in the assay on HCT-15, above 100 µM. Further, the GI50 was > 100 µM (inactive) in the assay with COLO 205; 1.57 µM (inactive) with SR; > 100 µM (inactive) in the assay on BT-549; > 100 µM (inactive) in the assay with HT-29; 4.5 µM (inactive) in the assay on SF-295; 3.76 µM (inactive) in the assay with T47D.
Turning to `O=C(CCn1ccnc1[N+](=O)[O-])NCCCn1ccnc1[N+](=O)[O-]`, the GI50 with IGROV-1, with NCI-H460, in the assay with PC-3, in the assay on RPMI-8226, in the assay on HL-60 and in the assay with 786-0 was > 100 µM (inactive) in each case. Further, the GI50 in the assay with HOP-62, in the assay on A498, in the assay on UO-31, in the assay on NCI-H23, in the assay with SK-OV-3 and in the assay with U-251 was > 100 µM (inactive) each time. Moreover, the GI50 with HCT-15 was above 100 µM; with COLO 205, > 100 µM (inactive); in the assay with SR, > 100 µM (inactive); in the assay on BT-549, > 100 µM (inactive); in the assay on HT-29 it was > 100 µM (inactive); in the assay with SF-295 it was > 100 µM (inactive). Moreover, the GI50 in the assay on T47D is > 100 µM (inactive).
For the compound `COc1cc2ncnc(NS(=O)(=O)c3cc4ccccc4s3)c2cc1OC`, the GI50 with IGROV-1 was 81.5 µM (inactive); in the assay with NCI-H460 it was > 100 µM (inactive); in the assay with PC-3 it was > 100 µM (inactive); in the assay on RPMI-8226 it was 58.3 µM (inactive); in the assay on 786-0, > 100 µM (inactive); with HOP-62, > 100 µM (inactive). Further, the GI50 in the assay on HCC 2998 is > 100 µM (inactive); in the assay with A498, 56.4 µM (inactive); with UO-31, 76 µM (inactive); in the assay on NCI-H23, 93.1 µM (inactive); in the assay with SK-OV-3, > 100 µM (inactive); in the assay with U-251, > 100 µM (inactive). In addition, the GI50 with HCT-15 is above 100 µM; with COLO 205, > 100 µM (inactive); in the assay with SR, > 100 µM (inactive); in the assay on BT-549, > 100 µM (inactive); in the assay on HT-29, > 100 µM (inactive); in the assay with SF-295, > 100 µM (inactive). In addition, in the assay on T47D, the GI50 is 25.2 µM (inactive).
Turning to `Cc1sc2c(c1C)/C(=N\O)c1cccn1-2`, the GI50 is 24.3 µM (inactive) with IGROV-1; 35.1 µM (inactive) with NCI-H460; 29.9 µM (inactive) in the assay on PC-3; 37.8 µM (inactive) in the assay with RPMI-8226; 20.1 µM (inactive) with 786-0; 25.3 µM (inactive) in the assay on HOP-62. In addition, the GI50 in the assay with HCC 2998 is 37 µM (inactive); in the assay on A498, 24.2 µM (inactive); with UO-31, 31.6 µM (inactive); with SK-OV-3, 39.7 µM (inactive); in the assay with U-251, 26.7 µM (inactive); in the assay on HCT-15 it was 81.8 µM. Moreover, the GI50 with COLO 205 was > 100 µM (inactive); in the assay with SR, 22.6 µM (inactive); in the assay on BT-549, 42.1 µM (inactive); with HT-29, 30.2 µM (inactive); in the assay on SF-295, 54.7 µM (inactive); in the assay on T47D, 25.1 µM (inactive).
In the case of `C#CCOC(=O)C=[N+]=[N-]`, the GI50 with IGROV-1, with NCI-H460, in the assay on PC-3, in the assay with RPMI-8226, in the assay on HL-60 and in the assay on 786-0 was > 10 µM (inactive) each time. Besides, the GI50 in the assay on HOP-62 is > 10 µM (inactive); in the assay on A498 it was 6.92 µM (inactive); with UO-31, > 10 µM (inactive); in the assay with NCI-H23 it was > 10 µM (inactive); in the assay on SK-OV-3 it was > 10 µM (inactive); in the assay with U-251, > 10 µM (inactive). The GI50 with HCT-15 is above 10 µM; in the assay on SR, > 10 µM (inactive); with BT-549, > 10 µM (inactive); in the assay with HT-29, > 10 µM (inactive); in the assay with SF-295, > 10 µM (inactive); with T47D, > 10 µM (inactive).
In the case of `CCOc1cc2c(OCc3ccccc3)cc3c4cc(OC)c(OC)cc4c[n+](C)c3c2cc1OC`, the GI50 is 4.97 µM (inactive) in the assay with NCI-H460; 1.66 µM (inactive) with PC-3; 2.06 µM (inactive) in the assay with RPMI-8226; 2.74 µM (inactive) in the assay on 786-0; 2.99 µM (inactive) with HOP-62; 1.57 µM (inactive) in the assay on HCC 2998. Also, the GI50 in the assay with A498 is 22.2 µM (inactive); in the assay on UO-31, 25.3 µM (inactive); in the assay on NCI-H23 it was 2.73 µM (inactive); with SK-OV-3 it was 3.02 µM (inactive); in the assay on U-251, 0.601 µM (active); in the assay with HCT-15, 59.6 µM. The GI50 in the assay on COLO 205 is 0.259 µM (active); with SR, 0.631 µM (active); in the assay with BT-549, 0.789 µM (active); with HT-29, 2.66 µM (inactive); with SF-295 it was 8.57 µM (inactive); with T47D it was 0.446 µM (active).
In the case of `COc1cc2c(cc1OC)C13CC[N+]4(C)CC5=CCOC6CC(=O)N2C1C6C5CC34[O-]` (configuration not stated), the GI50 in the assay with IGROV-1, with NCI-H460, with PC-3, in the assay on RPMI-8226, with HL-60 and with 786-0 was > 100 µM (inactive) throughout. The GI50 in the assay on HOP-62, with A498, in the assay on UO-31, in the assay with NCI-H23, in the assay on SK-OV-3 and in the assay on U-251 was > 100 µM (inactive) in each case. The GI50 in the assay with HCT-15 was above 100 µM; in the assay with COLO 205 it was > 100 µM (inactive); in the assay on SR, > 100 µM (inactive); in the assay on BT-549, > 100 µM (inactive); in the assay with SF-295 it was > 100 µM (inactive); in the assay with T47D it was > 100 µM (inactive).
